Experimental data taken from EP3753932A1, “SUBSTITUTED BICYCLIC DERIVATIVES HAVING MULTIMODAL ACTIVITY AGAINST PAIN” (priority 2019, dated 2020).
pKi: −log10 of the molar value. Read-outs that look alike come from different tables or passages of the source.

What was measured:
[1] = biological target: T1, Human µ-opioid receptor (Homo sapiens, UniProt P35372); assay: Human µ-opioid receptor radioligand assay ([3H]-DAMGO); format: binding
T1 construct: expressed in transfected cells; host or cells: CHO-K1
T1 sequence (P35372 whole entry): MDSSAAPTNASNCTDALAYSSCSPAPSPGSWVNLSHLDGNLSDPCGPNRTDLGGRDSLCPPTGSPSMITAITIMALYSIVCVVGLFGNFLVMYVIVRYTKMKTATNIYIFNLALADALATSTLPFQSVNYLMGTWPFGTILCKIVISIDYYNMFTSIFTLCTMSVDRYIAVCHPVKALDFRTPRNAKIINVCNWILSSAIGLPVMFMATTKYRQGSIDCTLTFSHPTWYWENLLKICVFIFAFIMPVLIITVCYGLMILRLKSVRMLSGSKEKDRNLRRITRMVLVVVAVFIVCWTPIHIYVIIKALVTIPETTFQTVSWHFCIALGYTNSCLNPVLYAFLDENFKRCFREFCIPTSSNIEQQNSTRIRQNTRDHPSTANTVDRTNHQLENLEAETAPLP
Procedure: Human µ-opioid receptor radioligand assay
Transfected CHO-K1 cell membranes (20 µg) were incubated with [^3H]-DAMGO (1 nM) in assay buffer containing Tris-HCl 50 mM, MgCl2 5 mM at pH 7.4. NBS (non-specific binding) was measured by adding 10 µM Naloxone. The binding of the test compound was measured at either one concentration (% inhibition at 1 or 10 µM) or five different concentrations to determine affinity values (Ki). Plates were incubated at 27 °C for 60 min. After the incubation period, the reaction mixture was then transferred to MultiScreen HTS, FC plates (Millipore), filtered and plates were washed 3 times with ice-cold 10 mM Tris-HCl (pH 7.4). Filters were dried and counted at approximately 40% efficiency in a MicroBeta scintillation counter (Perkin-Elmer) using EcoScint liquid scintillation cocktail.

[2] = biological target: Human α2δ-1 subunit of Cav2.2 calcium channel (Homo sapiens, UniProt P54289); assay: Human α2δ-1 subunit of Cav2.2 calcium channel assay ([3H]-Gabapentin binding)
Chain of Human α2δ-1 subunit of Cav2.2 calcium channel (P54289 25-1103): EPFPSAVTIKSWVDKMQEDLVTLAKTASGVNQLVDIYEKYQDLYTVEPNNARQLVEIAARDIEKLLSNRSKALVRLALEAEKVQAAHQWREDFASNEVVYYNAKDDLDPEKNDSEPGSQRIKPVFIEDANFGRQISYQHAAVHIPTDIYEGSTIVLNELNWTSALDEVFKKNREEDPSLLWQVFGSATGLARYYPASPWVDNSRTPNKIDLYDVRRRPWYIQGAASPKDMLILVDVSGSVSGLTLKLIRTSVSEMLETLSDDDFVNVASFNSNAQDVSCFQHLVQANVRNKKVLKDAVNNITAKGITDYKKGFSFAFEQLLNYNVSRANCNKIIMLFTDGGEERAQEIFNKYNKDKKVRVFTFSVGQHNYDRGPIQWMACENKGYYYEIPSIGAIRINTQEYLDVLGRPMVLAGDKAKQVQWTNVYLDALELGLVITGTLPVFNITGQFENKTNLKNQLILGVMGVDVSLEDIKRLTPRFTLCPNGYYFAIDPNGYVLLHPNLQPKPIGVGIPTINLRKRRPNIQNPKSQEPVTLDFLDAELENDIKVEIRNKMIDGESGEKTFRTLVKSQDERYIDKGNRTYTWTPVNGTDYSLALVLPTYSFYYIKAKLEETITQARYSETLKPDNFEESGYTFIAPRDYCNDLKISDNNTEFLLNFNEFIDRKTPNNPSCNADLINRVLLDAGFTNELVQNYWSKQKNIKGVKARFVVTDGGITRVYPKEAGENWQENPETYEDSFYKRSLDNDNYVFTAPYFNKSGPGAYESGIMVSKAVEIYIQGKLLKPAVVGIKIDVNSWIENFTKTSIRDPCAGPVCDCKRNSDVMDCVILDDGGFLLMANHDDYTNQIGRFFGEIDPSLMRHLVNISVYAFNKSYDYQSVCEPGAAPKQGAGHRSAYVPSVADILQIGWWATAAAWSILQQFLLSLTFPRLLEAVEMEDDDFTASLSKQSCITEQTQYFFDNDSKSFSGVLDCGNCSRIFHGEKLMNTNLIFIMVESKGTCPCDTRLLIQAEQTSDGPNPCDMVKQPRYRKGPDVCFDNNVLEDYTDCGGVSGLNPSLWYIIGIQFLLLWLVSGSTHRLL
Procedure: Human α2δ-1 subunit of Cav2.2 calcium channel assay
Human α2δ-1 enriched membranes (2.5 µg) were incubated with 15 nM of radiolabeled [3H]-Gabapentin in assay buffer containing Hepes-KOH 10mM, pH 7.4. NSB (non specific binding) was measured by adding 10 µM pregabalin. The binding of the test compound was measured at either one concentration (% inhibition at 1 or 10 µM) or five different concentrations to determine affinity values (Ki). After 60 min incubation at 27 °C, binding reaction was terminated by filtering through Multiscreen GF/C (Millipore) presoaked in 0.5 % polyethyleneimine in Vacuum Manifold Station, followed by 3 washes with ice-cold filtration buffer containing 50 mM Tris-HCl, pH 7.4. Filter plates were dried at 60 °C for 1 hour and 30 µl of scintillation cocktail were added to each well before radioactivity reading. Readings were performed in a Trilux 1450 Microbeta radioactive counter (Perkin Elmer).

[3] = transfected CHO-K1 cell membranes, [3H]-DAMGO 1 nM, read-out: µ-binding
[4] = human α2δ-1 enriched membranes, [3H]-Gabapentin 15 nM, read-out: α2δ-1 binding

SMILES: CCC[C@H](c1ccc2cc(CN3CCC(c4cccc(O)c4)(N(C)C)CC3)ccc2n1)N1C[C@@H](C)N[C@@H](C)C1 [Example 10, 3-(4-(Dimethylamino)-1-((2-((R)-1-((3S,5R)-3,5-dimethylpiperazin-1-yl)butyl)quinolin-6-yl)methyl)piperidin-4-yl)phenol]
- pKi [1, 3]: > 7.00
- pKi [2]: > 6.30

SMILES: CCCC(c1ncc2cc(N3CCC(c4cccc(O)c4)(N(C)C)CC3)ccc2n1)N1C[C@@H](C)N[C@@H](C)C1 (stereo partly drawn) [Example 25, 3-(4-(Dimethylamino)-1-(2-(1-((3S,5R)-3,5-dimethylpiperazin-1-yl)butyl)quinazolin-6-yl)piperidin-4-yl)phenol]
- pKi [1, 3]: > 7.00
- pKi [2]: < 5.30

SMILES: CCCC(c1ccc2cc(N3CCC(c4cccc(O)c4)(N(C)C)CC3)ccc2c1)N1C[C@@H](C)N[C@@H](C)C1 (stereo partly drawn) [Example 1, 3-(4-(Dimethylamino)-1-(6-(1-((3S,5R)-3,5-dimethylpiperazin-1-yl)butyl)naphthalen-2-yl)piperidin-4-yl)phenol]
- pKi [1, 3]: > 7.00
- pKi [2]: < 5.30

SMILES: CCC[C@H](c1cc2ccc(CN3CCC(c4cccc(O)c4)(N(C)C)CC3)cc2nc1CC)N1C[C@@H](C)N[C@@H](C)C1 [Example 23, 3-(4-(Dimethylamino)-1-((3-((R)-1-((3S,5R)-3,5-dimethylpiperazin-1-yl)butyl)-2-ethylquinolin-7-yl)methyl)piperidin-4-yl)phenol]
- pKi [1, 3]: > 7.00
- pKi [2]: > 6.30

SMILES: CCC[C@H](c1ncc2cc(N3CCC(c4cccc(O)c4)(N(C)C)CC3)ccc2n1)N1C[C@@H](C)N[C@@H](C)C1 [Example 26, 3-(4-(Dimethylamino)-1-(2-((R)-1-((3S,5R)-3,5-dimethylpiperazin-1-yl)butyl)quinazolin-6-yl)piperidin-4-yl)phenol]
- pKi [1, 3]: > 7.00
- pKi [2]: < 5.30

SMILES: CCCC(c1ncc2cc(CN3CCC(c4cccc(O)c4)(N(C)C)CC3)ccc2n1)N1C[C@@H](C)N[C@@H](C)C1 (stereo partly drawn) [Example 28, 3-(4-(Dimethylamino)-1-((2-(1-((3S,5R)-3,5-dimethylpiperazin-1-yl)butyl)quinazolin-6-yl)methyl)piperidin-4-yl)phenol]
- pKi [1]: > 7.00
- pKi [2, 4]: < 5.30

SMILES: CCC[C@@H](c1ccc2cc(CN3CCC(c4cccc(O)c4)(N(C)C)CC3)ccc2n1)N1C[C@@H](C)N[C@@H](C)C1 [Example 11, 3-(4-(Dimethylamino)-1-((2-((S)-1-((3S,5R)-3,5-dimethylpiperazin-1-yl)butyl)quinolin-6-yl)methyl)piperidin-4-yl)phenol]
- pKi [1]: > 7.00
- pKi [2, 4]: 5.30 to 6.30

SMILES: CCCC(c1cc2ccc(N3CCC(c4cccc(O)c4)(N(C)C)CC3)cc2nc1CC)N1C[C@@H](C)N[C@@H](C)C1 (stereo partly drawn) [Example 20, 3-(4-(Dimethylamino)-1-(3-(1-((3S,5R)-3,5-dimethylpiperazin-1-yl)butyl)-2-ethylquinolin-7-yl)piperidin-4-yl)phenol]
- pKi [1, 3]: > 7.00
- pKi [2]: > 6.30

SMILES: CCCC(c1cnc2ccc(CN3CCC(c4cccc(O)c4)(N(C)C)CC3)cc2c1)N1C[C@@H](C)N[C@@H](C)C1 (stereo partly drawn) [Example 15, 3-(4-(Dimethylamino)-1-((3-(1-((3S,5R)-3,5-dimethylpiperazin-1-yl)butyl)quinolin-6-yl)methyl)piperidin-4-yl)phenol]
- pKi [1, 3]: > 7.00
- pKi [2]: > 6.30

SMILES: CCCC(c1cnc2ccc(CN3CCC(c4cccc(O)c4)(N(C)C)CC3)cc2n1)N1C[C@@H](C)N[C@@H](C)C1 (stereo partly drawn) [Example 37, 3-(4-(Dimethylamino)-1-((3-(1-((3S,5R)-3,5-dimethylpiperazin-1-yl)butyl)quinoxalin-6-yl)methyl)piperidin-4-yl)phenol]
- pKi [1, 3]: > 7.00
- pKi [2]: > 6.30

SMILES: CCCC(c1cnc2cc(N3CCC(c4cccc(O)c4)(N(C)C)CC3)ccc2c1)N1C[C@@H](C)N[C@@H](C)C1 (stereo partly drawn) [Example 2, 3-(4-(Dimethylamino)-1-(3-(1-((3S,5R)-3,5-dimethylpiperazin-1-yl)butyl)quinolin-7-yl)piperidin-4-yl)phenol]
- pKi [1]: > 7.00
- pKi [2, 4]: 5.30 to 6.30

SMILES: CCC[C@H](c1cnc2ccc(CN3CCC(c4ccccc4)(N(C)C)CC3)cc2c1)N1C[C@@H](C)N[C@@H](C)C1 [Example 18, 1-((3-((R)-1-((3S,5R)-3,5-Dimethylpiperazin-1-yl)butyl)quinolin-6-yl)methyl)-N,N-dimethyl-4-phenylpiperidin-4-amine]
- pKi [1]: 6.30 to 7.00
- pKi [2, 4]: 5.30 to 6.30

SMILES: CCC[C@@H](c1cnc2ccc(CN3CCC(c4cccc(O)c4)(N(C)C)CC3)cc2n1)N1C[C@@H](C)N[C@@H](C)C1 [Example 39, 3-(4-(Dimethylamino)-1-((3-((S)-1-((3S,5R)-3,5-dimethylpiperazin-1-yl)butyl)quinoxalin-6-yl)methyl)piperidin-4-yl)phenol]
- pKi [1]: > 7.00
- pKi [2, 4]: 5.30 to 6.30

SMILES: CCCC(c1cc(OC)c2cc(N3CCC(c4ccccc4)(N(C)C)CC3)ccc2n1)N1C[C@@H](C)N[C@@H](C)C1 (stereo partly drawn) [Example 31, 1-(2-(1-((3S,5R)-3,5-Dimethylpiperazin-1-yl)butyl)-4-methoxyquinolin-6-yl)-N,N-dimethyl-4-phenylpiperidin-4-amine]
- pKi [1, 3]: 6.30 to 7.00
- pKi [2]: > 6.30

SMILES: CCCC(c1ccc2cc(N3CCC(c4cccc(O)c4)(N(C)C)CC3)ccc2n1)N1C[C@@H](C)N[C@@H](C)C1 (stereo partly drawn) [Example 3, 3-(4-(Dimethylamino)-1-(2-(1-((3S,5R)-3,5-dimethylpiperazin-1-yl)butyl)quinolin-6-yl)piperidin-4-yl)phenol]
- pKi [1]: > 7.00
- pKi [2, 4]: 5.30 to 6.30

SMILES: CCC[C@H](c1cnc2cc(CN3CCC(c4ccccc4)(N(C)C)CC3)ccc2c1)N1C[C@@H](C)N[C@@H](C)C1 [Example 12, 1-((3-((R)-1-((3S,5R)-3,5-Dimethylpiperazin-1-yl)butyl)quinolin-7-yl)methyl)-N,N-dimethyl-4-phenylpiperidin-4-amine]
- pKi [1, 3]: 6.30 to 7.00
- pKi [2]: > 6.30

SMILES: CCCC(c1cnc2cc(N3CCC(c4cccc(O)c4)(N(C)C)CC3)ccc2n1)N1C[C@@H](C)N[C@@H](C)C1 (stereo partly drawn) [Example 32, 3-(4-(Dimethylamino)-1-(2-(1-((3S,5R)-3,5-dimethylpiperazin-1-yl)butyl)quinoxalin-6-yl)piperidin-4-yl)phenol]
- pKi [1]: > 7.00
- pKi [2, 4]: 5.30 to 6.30

SMILES: CCCC(c1ccc2cc(CN3CCC(c4cccc(O)c4)(N(C)C)CC3)ccc2n1)N1C[C@@H](C)N[C@@H](C)C1 (stereo partly drawn) [Example 7, 3-(4-(Dimethylamino)-1-((2-(1-((3S,5R)-3,5-dimethylpiperazin-1-yl)butyl)quinolin-6-yl)methyl)piperidin-4-yl)phenol]
- pKi [1, 3]: > 7.00
- pKi [2]: > 6.30

SMILES: CCC[C@@H](c1nc2ccc(CN3CCC(c4cccc(O)c4)(N(C)C)CC3)cc2nc1CC)N1C[C@@H](C)N[C@@H](C)C1 [Example 42, 3-(4-(Dimethylamino)-1-((2-((S)-1-((3S,5R)-3,5-dimethylpiperazin-1-yl)butyl)-3-ethylquinoxalin-6-yl)methyl)piperidin-4-yl)phenol]
- pKi [1]: > 7.00
- pKi [2, 4]: 5.30 to 6.30

SMILES: CCCC(c1cnc2cc(CN3CCC(c4cccc(O)c4)(N(C)C)CC3)ccc2c1)N1C[C@@H](C)N[C@@H](C)C1 (stereo partly drawn) [Example 6, 3-(4-(Dimethylamino)-1-((3-(1-((3S,5R)-3,5-dimethylpiperazin-1-yl)butyl)quinolin-7-yl)methyl)piperidin-4-yl)phenol]
- pKi [1, 3]: > 7.00
- pKi [2]: > 6.30

SMILES: CCC[C@H](c1cnc2cc(N3CCC(c4cccc(O)c4)(N(C)C)CC3)ccc2c1)N1C[C@@H](C)N[C@@H](C)C1 [Example 4, 3-(4-(Dimethylamino)-1-(3-((R)-1-((3S,5R)-3,5-dimethylpiperazin-1-yl)butyl)quinolin-7-yl)piperidin-4-yl)phenol]
- pKi [1]: > 7.00
- pKi [2, 4]: 5.30 to 6.30
